Measured values from patent publication US20090005363A1, “Organic Compounds” (priority 2005, published 2009).

Target: mGluR5 (Homo sapiens, UniProt P41594)
Test: inhibition of the glutamate induced elevation of intracellular Ca2+ concentration
Conditions: read-out: mGluR5 Activity inh. at 10 μM [%]
Text: This can be determined in vitro for example at recombinant human metabotropic glutamate receptors, especially PLC-coupled subtypes thereof such as mGluR5, using different procedures like, for example, measurement of the inhibition of the agonist induced elevation of intracellular Ca^2+ concentration in accordance with L. P. Daggett et al., Neuropharm.

Chain of mGluR5 (P41594 21-1180 isoform P41594-2 limits assumed): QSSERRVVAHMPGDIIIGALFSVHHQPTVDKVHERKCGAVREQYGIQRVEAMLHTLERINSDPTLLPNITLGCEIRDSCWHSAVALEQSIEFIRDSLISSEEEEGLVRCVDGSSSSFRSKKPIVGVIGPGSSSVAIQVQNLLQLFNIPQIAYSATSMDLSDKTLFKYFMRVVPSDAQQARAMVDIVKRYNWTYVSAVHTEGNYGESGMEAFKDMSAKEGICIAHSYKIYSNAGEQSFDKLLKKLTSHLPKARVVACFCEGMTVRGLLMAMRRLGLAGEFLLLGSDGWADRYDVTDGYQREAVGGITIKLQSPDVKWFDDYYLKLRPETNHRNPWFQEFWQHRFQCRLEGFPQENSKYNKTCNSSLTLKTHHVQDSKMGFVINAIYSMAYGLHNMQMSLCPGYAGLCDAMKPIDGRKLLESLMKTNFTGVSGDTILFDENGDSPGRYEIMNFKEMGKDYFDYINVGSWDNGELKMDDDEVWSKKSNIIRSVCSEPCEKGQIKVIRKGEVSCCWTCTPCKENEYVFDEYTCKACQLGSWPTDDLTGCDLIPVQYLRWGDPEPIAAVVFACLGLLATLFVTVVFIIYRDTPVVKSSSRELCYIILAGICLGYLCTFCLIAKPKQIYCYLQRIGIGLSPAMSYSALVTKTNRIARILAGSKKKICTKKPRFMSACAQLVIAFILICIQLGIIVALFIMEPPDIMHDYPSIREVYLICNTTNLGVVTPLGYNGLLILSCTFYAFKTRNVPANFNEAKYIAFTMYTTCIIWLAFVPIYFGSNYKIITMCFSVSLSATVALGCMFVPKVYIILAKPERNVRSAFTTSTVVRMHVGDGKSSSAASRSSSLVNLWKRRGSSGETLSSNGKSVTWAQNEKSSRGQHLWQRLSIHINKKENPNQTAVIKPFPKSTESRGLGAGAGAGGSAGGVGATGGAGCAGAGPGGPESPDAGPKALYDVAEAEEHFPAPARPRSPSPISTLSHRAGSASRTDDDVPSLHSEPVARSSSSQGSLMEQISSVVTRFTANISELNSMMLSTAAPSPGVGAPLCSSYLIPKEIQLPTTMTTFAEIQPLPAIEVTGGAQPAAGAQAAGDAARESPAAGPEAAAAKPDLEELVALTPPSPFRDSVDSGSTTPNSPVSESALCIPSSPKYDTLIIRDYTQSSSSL

| SMILES | inhibition at 10 µM |
| --- | --- |
| Cc1ccc(Nc2ncc(C(=O)N3CCCCC3CCO)cc2Cl)cn1 (stereo not drawn) [Compound 4.61, [5-Chloro-6(6-methyl-pyridin-3-ylamino)-pyridin-3-yl]-[2-(2-hydroxy-ethyl)-piperidin-1-yl]-methanone] | 79% |
| CCCC1CCC(F)CN1C(=O)c1cnc(Nc2ccc(C)nc2)c(Cl)c1 (stereo not drawn) [Compound 4.62, [5-Chloro-6-(6-methyl-pyridin-3-ylamino)-pyridin-3-yl]-(5-fluoro-2-propyl-piperidin-1-yl)-methanone] | 99% |
| Cc1ccc(Nc2ncc(C(=O)N3CCCCC3C(F)C(C)F)cc2Cl)cn1 (stereo not drawn) [Compound 4.63, [5-Chloro-6-(6-methyl-pyridin-3-ylamino)-pyridin-3-yl]-[2-(1,2-difluoro-propyl)-piperidin-1-yl]-methanone] | 100% |
| Cc1ccc(Nc2ncc(C(=O)N3CCCCC3CC(C)F)cc2Cl)cn1 (stereo not drawn) [Compound 4.64, [5-Chloro-6-(6-methyl-pyridin-3-ylamino)-pyridin-3-yl]-[2-(2-fluoro-propyl)-piperidin-1-yl]-methanone] | 99% |
| CCC1OCCCCN1C(=O)c1cnc(Nc2ccc(C)nc2)c(Cl)c1 (stereo not drawn) [Compound 4.65, [5-Chloro-6-(6-methyl-pyridin-3-ylamino)-pyridin-3-yl]-(2-ethyl-[1,3]oxazepan-3-yl)-methanone] | 83% |
| CCCC1OCCCCN1C(=O)c1cnc(Nc2ccc(C)nc2)c(Cl)c1 (stereo not drawn) [Compound 4.66, [5-Chloro-6-(6-methyl-pyridin-3-ylamino)-pyridin-3-yl]-(2-propyl-[1,3]oxazepan-3-yl)-methanone] | 91% |
| CCC(CC)C1OCCCCN1C(=O)c1cnc(Nc2ccc(C)nc2)c(Cl)c1 (stereo not drawn) [Compound 4.67, [5-Chloro-6-(6-methyl-pyridin-3-ylamino)-pyridin-3-yl]-[2-(1-ethyl-propyl)-[1,3]oxazepan-3-yl]-methanone] | 95% |
| CCCC1OCCCN1C(=O)c1cnc(Nc2ccc(C)nc2)c(Cl)c1 (stereo not drawn) [Compound 4.68, [5-Chloro-6-(6-methyl-pyridin-3-ylamino)-pyridin-3-yl]-(2-propyl-[1,3]oxazinan-3-yl)-methanone] | 99% |
| CCC(CC)C1OCCCN1C(=O)c1cnc(Nc2ccc(C)nc2)c(Cl)c1 (stereo not drawn) [Compound 4.69, [5-Chloro-6-(6-methyl-pyridin-3-ylamino)-pyridin-3-yl]-[2-(1-ethyl-propyl)-[1,3]oxazinan-3-yl]-methanone] | 99% |
| CCCCC1OCCCN1C(=O)c1cnc(Nc2ccc(C)nc2)c(Cl)c1 (stereo not drawn) [Compound 4.70, (2-Butyl-[1,3]oxazinan-3-yl)-[5-chloro-6-(6-methyl-pyridin-3-ylamino)-pyridin-3-yl]-methanone] | 96% |
| COCCC1CCCCN1C(=O)c1cnc(Nc2ccc(C)nc2)c(Cl)c1 (stereo not drawn) [Compound 4.71, [5-Chloro-6-(6-methyl-pyridin-3-ylamino)-pyridin-3-yl]-[2-(2-methoxy-ethyl)-piperidin-1-yl]-methanone] | 99% |
| Cc1ccc(Nc2ncc(C(=O)N3CCCC3c3ccccc3)cc2Cl)cn1 (stereo not drawn) [Compound 4.72, [5-Chloro-6-(6-methyl-pyridin-3-ylamino)-pyridin-3-yl]-(2-phenyl-pyrrolidin-1-yl)-methanone] | 97% |
| Cc1ccc(Nc2ncc(C(=O)N3CCCC3c3ccccn3)cc2Cl)cn1 (stereo not drawn) [Compound 4.73, [5-Chloro-6-(6-methyl-pyridin-3-ylamino)-pyridin-3-yl]-(2-pyridin-2-yl-pyrrolidin-1-yl)-methanone] | 72% |
| CCO[C@@H]1CCCN1C(=O)c1cnc(Nc2ccc(C)nc2)c(Cl)c1 [Compound 4.74, [5-Chloro-6-(6-methyl-pyridin-3-ylamino)-pyridin-3-yl]-((R)-2-ethoxy-pyrrolidin-1-yl)-methanone] | 92% |
| Cc1ccc(Nc2ncc(C(=O)N3CCCC3c3ccc(C)s3)cc2Cl)cn1 (stereo not drawn) [Compound 4.75, [5-Chloro-6-(6-methyl-pyridin-3-ylamino)-pyridin-3-yl]-[2-(5-methyl-thiophen-2-yl)-pyrrolidin-1-yl]-methanone] | 96% |
| CCCC1CCCCCN1C(=O)c1cnc(Nc2ccc(C)nc2)c(Cl)c1 (stereo not drawn) [Compound 4.76, [5-Chloro-6-(6-methyl-pyridin-3-ylamino)-pyridin-3-yl]-(2-propyl-azepan-1-yl)-methanone] | 92% |
| CCCC1COCCN1C(=O)c1cnc(Nc2ccc(C)nc2)c(Cl)c1 (stereo not drawn) [Compound 4.77, [5-Chloro-6-(6-methyl-pyridin-3-ylamino)-pyridin-3-yl]-(3-propyl-morpholin-4-yl)-methanone] | 100% |
| O=C(c1cnc(Nc2ccc(Cl)cc2)c(Cl)c1)N1CCCCCC1 [Compound 5.1, Azepan-1-yl-[5-chloro-6-(4-chloro-phenylamino)-pyridin-3-yl]-methanone] | 98% |
| O=C(c1cnc(Nc2ccc(Cl)cc2)nc1)N1CCCCCC1 [Compound 5.3, Azepan-1-yl-[2-(4-chloro-phenylamino)-pyrimidin-5-yl]-methanone] | 87% |
| O=C(c1cnc(Nc2ccc(Cl)cc2)nc1)N1CCCCC1 [Compound 5.4, [2-(4-Chloro-phenylamino)-pyrimidin-5-yl]-piperidin-1-yl-methanone] | 83% |

Second part, the molecule after the results:

| inhibition at 10 µM | SMILES |
| --- | --- |
| 97% | COc1cc(C(=O)N2CCCCCC2)cnc1Nc1ccc(Cl)cc1 [Compound 6.1, Azepan-1-yl-[6-(4-chloro-phenylamino)-5-methoxy-pyridin-3-yl]-methanone] |
| 95% | COc1cc(C(=O)N2CCCCC2)cnc1Nc1ccc(Cl)cc1 [Compound 6.3, [6-(4-Chloro-phenylamino)-5-methoxy-pyridin-3-yl]-piperidin-1-yl-methanone] |
| 98% | COc1cc(C(=O)N2CCCCC2)cnc1Nc1ccc(C)nc1 [Compound 6.4, [5-Methoxy-6-(6-methyl-pyridin-3-ylamino)-pyridin-3-yl]-piperidin-1-yl-methanone] |
| 33% | CCOc1cc(C(=O)N2CCCCCC2)cnc1Nc1ccc(Cl)cc1 [Compound 6.5, Azepan-1-yl-[6-(4-chloro-phenylamino)-5-ethoxy-pyridin-3-yl]-methanone] |
| 54% | CCOc1cc(C(=O)N2CCCCCC2)cnc1Nc1ccc(C)nc1 [Compound 6.6, Azepan-1-yl-[5-ethoxy-6-(6-methyl-pyridin-3-ylamino)-pyridin-3-yl]-methanone] |
| 35% | CCOc1cc(C(=O)N2CCCCC2)cnc1Nc1ccc(C)nc1 [Compound 6.7, [5-Ethoxy-6-(6-methyl-pyridin-3-ylamino)-pyridin-3-yl]-piperidin-1-yl-methanone] |
| 98% | CC1CCCN(C(=O)c2cnc(Nc3ccc(Cl)nc3)c(Cl)c2)C1 (stereo not drawn) [Compound 7.1, [5-Chloro-6-(6-chloro-pyridin-3-ylamino)-pyridin-3-yl]-(3-methyl-piperidin-1-yl)-methanone] |
| 91% | O=C(c1ccc(Nc2ccc(Cl)cc2)nn1)N1CCCCC1 [Compound 8.1, [6-(4-Chloro-phenylamino)-pyridazin-3-yl]-piperidin-1-yl-methanone] |
| 82% | CC1(C)CCCN(C(=O)c2ccc(Nc3ccc(Cl)cc3)nn2)C1 [Compound 8.3, [6-(4-Chloro-phenylamino)-pyridazin-3-yl]-(3,3-dimethyl-piperidin-1-yl)-methanone] |
| 89% | O=C(c1ccc(Nc2ccc(Cl)cc2)nn1)N1CCc2ccccc2C1 [Compound 8.4, [6-(4-Chloro-phenylamino)-pyridazin-3-yl]-(3,4-dihydro-1H-isoquinolin-2-yl)-methanone] |
| 86% | CC1CCN(C(=O)c2ccc(Nc3ccc(Cl)cc3)nn2)CC1 [Compound 8.5, [6-(4-Chloro-phenylamino)-pyridazin-3-yl]-(4-methyl-piperidin-1-yl)-methanone] |
| 97% | Cc1ccc(Nc2ncc(C(=O)N3CCCCC3)cc2C)cn1 [Compound 9.1, [5-Methyl-6-(6-methyl-pyridin-3-ylamino)-pyridin-3-yl]-piperidin-1-yl-methanone] |
| 99% | Cc1ccc(Nc2ncc(C(=O)N3CCCCC3)cc2F)cn1 [Compound 9.2, [5-Fluoro-6-(6-methyl-pyridin-3-ylamino)-pyridin-3-yl]-piperidin-1-yl-methanone] |
